Test results reported in patent US8642011B2 (priority 2006, dated 2014).
≈ marks a conversion by molar mass, not a printed value.

Legend:
Assay in all cases: microbe, parasite or virus in culture
Settings in all cases: Mycobacterium tuberculosis, read-out: minimum inhibitory concentration (MIC)
[1] = tested on: M. tuberculosis strains H37Rv; type: cell-based
MT103 (wild type) = type: cell-based, M. tuberculosis
SO2 strain = type: cell-based, M. tuberculosis

Structure (SMILES) | MIC [1] [µg/mL] | MIC (MT103 (wild type)) [µg/mL] | MIC (SO2 strain) [µg/mL]
CC[C@@H](CO)NCCN[C@@H](CC)CO [Ethambutol] | 2 (≈ 9.79 µM) | 2 (≈ 9.79 µM) | 2 (≈ 9.79 µM)
NNC(=O)c1ccncc1 [Isoniazid] | 0.5 (≈ 3.65 µM) | 0.5 (≈ 3.65 µM) | 0.25 (≈ 1.82 µM)
CO[C@H]1/C=C/O[C@@]2(C)Oc3c(C)c(O)c4c(O)c(c(/C=N/N5CCN(C)CC5)c(O)c4c3C2=O)NC(=O)/C(C)=C\C=C\[C@H](C)[C@H](O)[C@@H](C)[C@@H](O)[C@@H](C)[C@H](OC(C)=O)[C@@H]1C [Rifampicin] | < 0.004 | < 0.004 | < 0.004
[H]/N=C(/N)N[C@H]1[C@H](O)[C@@H](O)[C@H](O[C@@H]2O[C@@H](C)[C@](O)(C=O)[C@H]2O[C@@H]2O[C@@H](CO)[C@H](O)[C@@H](O)[C@@H]2NC)[C@@H](N/C(N)=N\[H])[C@@H]1O [Streptomycin] | < 0.5 | < 0.5 | < 0.5
